“And” between values parts separate entries of the source, which are not always exact repeats. Identical values can stand only once.
How the values were obtained:
pregnancy in rats [1] = experiment: Pregnancy termination in rats, compounds administered intragastrically for four days (Table 1); format: in vivo, rat; settings: for Serum Progesterone ng/ml + S.E. / Serum Progesterone (Percent Control): serum day 11, 24 hours after initial injection
Protocol: (§1) The following tables list the results for a compound of Formula IV as compared with a control of previously known 2α-cyano-17β-hydroxy-3-oxo-4,4,17α-trimethylandrost-5-end(Cyanoketone) for termination of pregnancy.
^1 Compounds were administered intragastrically once daily on days 10
through 13 of pregnancy in a vehicle consisting of PEG400, propylene
glycol and 100 percent ethanol (50:40:10, v:v:v). Serum for progesterone
determination was drawn on day 11 of pregnancy, 24 hours after the initia
injection of compound. The animals were autopsied on day 14 of pregnancy.

pregnancy in rats [2] = experiment: Termination of pregnancy in rats, compounds administered subcutaneously (Table 2); format: in vivo, rat; settings: for Serum Progesterone (Percent Control) / Serum Progesterone ng/ml + S.E.: serum day 11, 24 hours after initial injection
Protocol: as §1
^1 Compounds given subcutaneously in corn oil vehicle once daily on
days 10 through 13 of pregnancy. Serum for progesterone determination was
drawn on day 11 of pregnancy, 24 hours after the initial injection of
compound. The animals were autopsied on day 14 of pregnancy.
^2 Serum progesterone values determined by RIA at Interlab Associates

[3] = 1 mg/kg/day intragastrically once daily days 10-13 of pregnancy, autopsy day 14
[4] = 2 mg/kg/day intragastrically days 10-13 of pregnancy
[5] = 2 mg/kg/day intragastrically once daily days 10-13 of pregnancy, autopsy day 14
[6] = 4 mg/kg/day intragastrically days 10-13 of pregnancy, 4 mg/kg/day
[7] = 4 mg/kg/day intragastrically once daily days 10-13 of pregnancy, autopsy day 14, 4 mg/kg/day
[8] = 8 mg/kg/day intragastrically days 10-13 of pregnancy
[9] = 8 mg/kg/day intragastrically once daily days 10-13 of pregnancy, autopsy day 14
[10] = 16 mg/kg/day intragastrically days 10-13 of pregnancy
[11] = 16 mg/kg/day intragastrically once daily days 10-13 of pregnancy, autopsy day 14
[12] = 32 mg/kg/day intragastrically days 10-13 of pregnancy
[13] = 32 mg/kg/day intragastrically once daily days 10-13 of pregnancy, autopsy day 14
[14] = 64 mg/kg/day intragastrically days 10-13 of pregnancy
[15] = 64 mg/kg/day intragastrically once daily days 10-13 of pregnancy, autopsy day 14
[16] = 128 mg/kg/day intragastrically days 10-13 of pregnancy
[17] = 128 mg/kg/day intragastrically once daily days 10-13 of pregnancy, autopsy day 14
[18] = 1 mg/kg/day subcutaneously days 10-13 of pregnancy
[19] = 1 mg/kg/day subcutaneously in corn oil once daily days 10-13 of pregnancy, autopsy day 14
[20] = 2 mg/kg/day subcutaneously days 10-13 of pregnancy

CC1(C)C(=O)[C@H](C#N)C[C@@]2(C)C1=CC[C@@H]1[C@@H]2CC[C@@]2(C)[C@H]1CC[C@]2(C)O [Cyanoketone, 2α-cyano-17β-hydroxy-3-oxo-4,4,17α-trimethylandrost-5-end]
Serum Progesterone ng/ml + S.E. (pregnancy in rats [1]; 1 mg/kg/day intragastrically days 10-13 of pregnancy): 47.3 + 3.5 ng/ml
Adrenal Wt. mg + SE (pregnancy in rats [1]; [3]): 74.9 + 4.1 mg
Fetal Viability: Normal Fetuses/Implantation Sites (pregnancy in rats [1]; [3]): 49/54
Fetal Viability: Normal Fetuses/Implantation Sites (Percent) (pregnancy in rats [1]; [3]): 91%
Number of Rats Pregnant/Number of Rats Treated (pregnancy in rats [1]; [3]): 5/5
Number of Rats Pregnant/Number of Rats Treated (Percent) (pregnancy in rats [1]; [3]): 100%
Serum Progesterone (Percent Control) (pregnancy in rats [1]; [4]): 111 Percent Control
Serum Progesterone ng/ml + S.E. (pregnancy in rats [1]; [4]): 52.5 + 3.7 ng/ml
Adrenal Wt. mg + SE (pregnancy in rats [1]; [5]): 77.1 + 5.3 mg
Fetal Viability: Normal Fetuses/Implantation Sites (pregnancy in rats [1]; [5]): 61/84
Fetal Viability: Normal Fetuses/Implantation Sites (Percent) (pregnancy in rats [1]; [5]): 73%
Number of Rats Pregnant/Number of Rats Treated (pregnancy in rats [1]; [5]): 6/7
Number of Rats Pregnant/Number of Rats Treated (Percent) (pregnancy in rats [1]; [5]): 86%
Serum Progesterone (Percent Control) (pregnancy in rats [1]; [6]): 75 Percent Control and 72 Percent Control
Serum Progesterone ng/ml + S.E. (pregnancy in rats [1]; [6]): 35.5 + 6.2 ng/ml and 33.8 + 3.8 ng/ml
Adrenal Wt. mg + SE (pregnancy in rats [1]; [7]): 75.0 + 3.5 mg and 76.9 + 3.7 mg
Fetal Viability: Normal Fetuses/Implantation Sites (pregnancy in rats [1]; [7]): 0/92 and 44/97
Number of Rats Pregnant/Number of Rats Treated (pregnancy in rats [1]; [7]): 1/8 and 5/8
Serum Progesterone (Percent Control) (pregnancy in rats [1]; [8]): 64 Percent Control
Serum Progesterone ng/ml + S.E. (pregnancy in rats [1]; [8]): 30.2 + 3.8 ng/ml
Adrenal Wt. mg + SE (pregnancy in rats [1]; [9]): 65.7 + 2.5 mg
Fetal Viability: Normal Fetuses/Implantation Sites (pregnancy in rats [1]; [9]): 13/110
Fetal Viability: Normal Fetuses/Implantation Sites (Percent) (pregnancy in rats [1]; [9]): 12%
Number of Rats Pregnant/Number of Rats Treated (pregnancy in rats [1]; [9]): 3/10
Number of Rats Pregnant/Number of Rats Treated (Percent) (pregnancy in rats [1]; [9]): 30%
Serum Progesterone (Percent Control) (pregnancy in rats [1]; [10]): 88 Percent Control
Serum Progesterone ng/ml + S.E. (pregnancy in rats [1]; [10]): 41.4 + 7.1 ng/ml
Adrenal Wt. mg + SE (pregnancy in rats [1]; [11]): 74.5 + 3.1 mg
Fetal Viability: Normal Fetuses/Implantation Sites (pregnancy in rats [1]; [11]): 25/103
Fetal Viability: Normal Fetuses/Implantation Sites (Percent) (pregnancy in rats [1]; [11]): 24%
Number of Rats Pregnant/Number of Rats Treated (pregnancy in rats [1]; [11]): 4/10
Number of Rats Pregnant/Number of Rats Treated (Percent) (pregnancy in rats [1]; [11]): 40%
Serum Progesterone (Percent Control) (pregnancy in rats [1]; [12]): 67 Percent Control
Serum Progesterone ng/ml + S.E. (pregnancy in rats [1]; [12]): 31.5 + 6.7 ng/ml
Adrenal Wt. mg + SE (pregnancy in rats [1]; [13]): 66.4 + 3.3 mg
Fetal Viability: Normal Fetuses/Implantation Sites (pregnancy in rats [1]; [13]): 19/101
Fetal Viability: Normal Fetuses/Implantation Sites (Percent) (pregnancy in rats [1]; [13]): 19%
Number of Rats Pregnant/Number of Rats Treated (pregnancy in rats [1]; [13]): 2/9
Number of Rats Pregnant/Number of Rats Treated (Percent) (pregnancy in rats [1]; [13]): 22%
Serum Progesterone (Percent Control) (pregnancy in rats [1]; [14]): 40 Percent Control
Serum Progesterone ng/ml + S.E. (pregnancy in rats [1]; [14]): 19.0 + 3.7 ng/ml
Adrenal Wt. mg + SE (pregnancy in rats [1]; [15]): 83.5 + 4.8 mg
Fetal Viability: Normal Fetuses/Implantation Sites (pregnancy in rats [1]; [15]): 24/128
Fetal Viability: Normal Fetuses/Implantation Sites (Percent) (pregnancy in rats [1]; [15]): 19%
Number of Rats Pregnant/Number of Rats Treated (pregnancy in rats [1]; [15]): 2/11
Number of Rats Pregnant/Number of Rats Treated (Percent) (pregnancy in rats [1]; [15]): 18%
Serum Progesterone (Percent Control) (pregnancy in rats [1]; [16]): 94 Percent Control
Serum Progesterone ng/ml + S.E. (pregnancy in rats [1]; [16]): 44.3 + 5.3 ng/ml
Adrenal Wt. mg + SE (pregnancy in rats [1]; [17]): 72.0 + 2.5 mg
Fetal Viability: Normal Fetuses/Implantation Sites (pregnancy in rats [1]; [17]): 85/99
Fetal Viability: Normal Fetuses/Implantation Sites (Percent) (pregnancy in rats [1]; [17]): 85%
Number of Rats Pregnant/Number of Rats Treated (pregnancy in rats [1]; [17]): 8/9
Number of Rats Pregnant/Number of Rats Treated (Percent) (pregnancy in rats [1]; [17]): 89%
Serum Progesterone (Percent Control) (pregnancy in rats [2]; [18]): 124 Percent Control
Serum Progesterone ng/ml + S.E. (pregnancy in rats [2]; [18]): 54.1 + 2.6 ng/ml
Adrenal Wt. mg + SE (pregnancy in rats [2]; [19]): 83.4 + 4.0 mg
Fetal Viability: Normal Fetuses/Implantation Sites (pregnancy in rats [2]; [19]): 80/82
Fetal Viability: Normal Fetuses/Implantation Sites (Percent) (pregnancy in rats [2]; [19]): 98%
Number of Rats Pregnant/Number of Rats Treated (pregnancy in rats [2]; [19]): 7/7
Number of Rats Pregnant/Number of Rats Treated (Percent) (pregnancy in rats [2]; [19]): 100%
Serum Progesterone (Percent Control) (pregnancy in rats [2]; [20]): 94 Percent Control
Serum Progesterone ng/ml + S.E. (pregnancy in rats [2]; [20]): 40.8 + 2.2 ng/ml

Reference: patent US4388311A, “Method for the induction of menses” (G. D. Searle & Co., priority 1982, dated 1983)
